Assay results taken from a melting point compilation (Tetko et al.; mined from patent text by program, amines drawn as free bases though some values may be those of a salt).

Row | Compound | melting point [°C]
1 | O=C1OCC(C(F)(F)F)N1c1nc(-c2ccc(Br)cc2)cs1 (configuration not stated) | 154 to 156
2 | CNc1ncc2c(-c3cccc(Cl)c3)cc(-c3cccc(C(=O)O)c3)c(OC)c2n1 | 270
3 | CC1(C)CC(=O)N(CC(COc2ccc(-c3ccc(C#N)cc3)cc2)N(O)C=O)C(=O)C1 (configuration not stated) | 121
4 | Cc1ccc(S(=O)(=O)n2ccc3c(-c4c(-c5ccc(F)cc5)nc5ccc(Cl)nn45)ccnc32)cc1 | 244 to 246
5 | BrCc1ncc(Br)cn1 | 55 to 57
6 | Cn1ncc2[nH]c3ccc(-c4cccc(O)c4)cc3c(=O)c21 | > 250
7 | Cc1c(NC(=O)CC(C)(C)C)cc2c(c1C)OC(C)(C)C2c1ccc(C(C)C)cc1 (configuration not stated) | 172 to 173
8 | Cc1nc(N)c(Br)c(NNCc2cncc(Br)c2)n1 | 221 to 222
9 | CS(=O)(=O)c1ccc(-n2nc(C(F)(F)F)cc2-c2ccc(-c3ccco3)cc2)cc1Cl | 139 to 142
10 | COc1cc(C(=O)C(F)(F)F)ccc1OCCCN1CCC(c2noc3cc(F)ccc23)CC1 | 78 to 80
11 | CCCCc1nn2cc(C(=O)OCC)ccc2c1C(=O)c1ccc(Br)cc1 | < 50
12 | Clc1cc(N2CCNCC2)nc(N2CCCC2)n1 | 89 to 100
13 | CC(C)c1cc(C(=O)Nc2ccc(C(=O)O)s2)oc1C(C)C | 227 to 228
14 | CC(=O)Nc1nccc(Oc2ccc3c(C(=O)Nc4cccc(C(F)(F)F)c4)cccc3c2)n1 | 216 to 217
15 | Oc1c(C2(c3ccc4ccccc4c3O)c3ccccc3-c3ccccc32)ccc2ccccc12 | 268 to 290
16 | CCCCCCCCCCCCCCCCCC(=O)Oc1ccccc1C(=O)OCC | 50.5 to 53.5
17 | COc1nc(NC(=O)NS(=O)(=O)CC(C)Cl)nc(OC)n1 (configuration not stated) | 139 to 141
18 | CCOC(=O)CCCOc1ccc([N+](=O)[O-])c(C=C2C(=O)NC(=O)N2C)c1 | 161 to 163
19 | O=C(NCCCn1cncn1)Nc1cccc(C(F)(F)F)c1 | 97 to 99
20 | CCSc1cc(C)nc(SCC)c1NC(=O)CN1CCN(CCSc2nc3ccc(COC)c(COC)c3o2)CC1 | 118 to 120
21 | COc1ccc2c(c1)OC(CN1CC=C(c3c[nH]c4ccccc34)CC1)CO2 (configuration not stated) | 166 to 168
22 | N#Cc1nn(-c2c(Cl)cc(C(F)(F)F)cc2Cl)cc1C1CC1(Cl)Cl (configuration not stated) | 123 to 126

Row | Compound | melting point [°C]
23 | COC(=O)/C=C/C1=C(c2ccc(OC)cc2)c2ccc(OC)cc2CC1 | 116 to 118
24 | CCCC1=C(C)C(=O)c2c(oc(Cc3ccc(OC)cc3)c2C)C1=O | 60 to 61
25 | COc1cc(-c2nc(NC(=O)c3cc4cc(C)cc(C)c4n3CC(=O)O)sc2CCC2CCCCC2)c(OC)cc1Cl | 241
26 | CCCSC(C)c1c(-c2ccc(S(C)(=O)=O)cc2)cnn(-c2ccc(F)cc2)c1=O (configuration not stated) | 45 to 60
27 | CSc1ccc2c(c1)C=C(C(=O)O)C(C(F)(F)F)O2 (configuration not stated) | 166 to 168
28 | CCCCCc1c(C(C)C)nc(C(C)C)c(CO)c1-c1ccc(CC)cc1 | 87 to 88
29 | C=C(C)C(=O)CC/C(C)=C/CC/C(C)=C/C(N)=O | 42 to 44
30 | Fc1ccc(-c2ccc(-c3cn([C@H]4CN5CCC4CC5)nn3)cc2)cn1 | 181
31 | C#Cc1cc2c(cc1C=O)C(C)(C)CCC2(C)C | 94 to 94.6
32 | NC(=O)c1ncn2c(-c3cccc(Cl)c3)ccnc12 | 252 to 254
33 | CC1(C)CSSC[C@@H](C(=O)O)NC1=O | 160 to 162
34 | COc1cc(N2CCC(N3CC[C@@H](O)C3)CC2)ccc1[N+](=O)[O-] | 137 to 139
35 | CCCCc1nc2cc(Cl)cc(C(=O)O)c2n1C(C)c1ccc(C(=O)O)cc1 (configuration not stated) | 312 to 315
36 | COc1ccc(Nc2nccc3ccn(S(=O)(=O)c4ccc(OC)cc4)c23)cc1 | 156 to 158
37 | CC(C)(C)C(=O)C(=C1SCCS1)n1cncn1 | 141
38 | CC1(C)OC(c2ccc(Cl)cc2Cl)C(Cn2cncn2)(c2ccc(Cl)cc2)O1 (configuration not stated) | 141 to 142
39 | COC(=O)c1sc2cc(OCc3cccnc3)ccc2c1Cl | 148 to 150
40 | Cc1ccc(CCCNCC(O)c2cccc(C(F)(F)F)c2)cc1 (configuration not stated) | 52 to 55
41 | NS(=O)(=O)Nc1ccc(N2CCN(c3ccncc3)CC2)cc1 | 216 to 219
42 | COC(=O)COc1ccc(NC(=O)c2cc(C(C)C)c(C(C)C)o2)cc1 | 104 to 105
43 | CCCCCCCCCc1cc2ccc(C(=O)O)cc2[nH]1 | 166 to 169
44 | COC(=O)c1ccc(-c2nc(-c3cccc(C(F)(F)F)c3)co2)cc1 | 134 to 135

Row | Compound | melting point [°C]
45 | CCCCOc1nc(N)c2nc(OC)n(CCNc3cccc(CC(=O)OC)c3)c2n1 | 119 to 120
46 | Cn1c(C=NO)cnc1[N+](=O)[O-] | 203 to 205
47 | CCNC(=O)C1Cc2c(n(C)c3ccc(OC)cc23)C1 (configuration not stated) | 162 to 163
48 | COc1cccc(-c2noc3ccsc23)c1 | 51 to 52
49 | CCOC(=O)c1cn(C)nc1C(F)(F)F | 61.5 to 63.1
50 | CCc1ncnc(O)c1F | 112 to 114
51 | Cc1ccc(C(=O)c2cc([N+](=O)[O-])ccc2Cl)cc1 | 121
52 | COc1cccc2c1C13CCNC(C2)C1(O)CCC(=O)C3 (configuration not stated) | 137 to 139
53 | NN=c1[nH]c2ccc(Br)cc2cc1[N+](=O)[O-] | 187
54 | COc1cccc(CNC(=O)c2nc3onc(C)c3c(=O)[nH]2)c1 | 236 to 237
55 | Cc1c(NC(=O)c2ccc(OCC3CCOC3)cc2)ccc2cc(CNCC(C)C)cnc12 (configuration not stated) | 132
56 | COc1ccc(C(=O)Nc2c(Cl)cncc2Cl)c2c1oc1ccc([N+](=O)[O-])cc12 | 315 to 317
57 | O=C(c1ccc(Cl)cc1Cl)N1CCc2cc(S(=O)(=O)N3CCN(c4cccc(Cl)c4)CC3)ccc21 | 184
58 | O=c1c2ncn(C3OC(COC(c4ccccc4)(c4ccccc4)c4ccccc4)C(O)C3O)c2ncn1Cc1ccccc1 (configuration not stated) | 208 to 209
59 | Cc1nn(C)c(C)c1N1CCN(c2c(C)c(C)c3c(c2C)CC(C)(C)O3)CC1 | 162 to 164
60 | CCOc1ccc2[nH]c(S(=O)Cc3cccn4ccnc34)nc2c1 (configuration not stated) | 186 to 188
61 | CCN1CCC(O)(c2cccc(Cl)c2F)C1 (configuration not stated) | 71 to 74
62 | COc1ccc(N2CCN(c3c(C)c(C)c4c(c3C)C(O)(c3ccc(OC(F)(F)F)cc3)C(C)(C)O4)CC2)cc1 (configuration not stated) | 175 to 176
63 | CCCCCCCCCCCCCCNC(=O)Oc1ccc([N+](=O)[O-])cc1OC(=O)NCCCCCCCCCCCCCC | 100 to 104
64 | Cc1cc(N2CCC3(CC2)OCCO3)nn2cnnc12 | 156 to 157
65 | Cc1ccc([N+](=O)[O-])cc1S(=O)(=O)n1ccnc1 | 119 to 120

Further lines, results first:

Row | melting point [°C] | Compound
66 | 232 to 234 | NC(=O)c1sc2nccc(NCCCc3ccccc3)c2c1N
67 | 120 to 122 | CC1(C(=O)O)COC2(CCCCCCC2)OC1
68 | 156 to 159 | CCN(CC)S(=O)(=O)c1ccccc1S(N)(=O)=O
69 | 88.5 to 90 | O[C@@H]1CN(Cc2ccccc2)C[C@H]1Oc1ccccc1 (relative stereo)
70 | 148 to 150 | Cn1cc(-c2ccccc2)c(=O)c(-c2cc(Br)ccc2F)c1
71 | 185 to 187 | CCOC(=O)c1ccccc1SC1C(=O)N(c2c(Cl)cc(Cl)cc2Cl)N=C1OC (configuration not stated)
72 | 186 | N[C@H]1CC[C@H](Nc2ccnc3cc(C(F)(F)F)ccc23)CC1
73 | 134 to 137 | O=C1C(=C(O)Cc2ccccc2)SC(=S)N1c1ccc(Cl)cc1
74 | 146 to 148 | CN(C)C(=O)c1cc2c(OC[C@@H](O)CN3CCC(c4ccc5ccccc5c4)CC3)cccc2n1C
75 | 132 to 133 | O=S(=O)(c1ccc2c(Cl)cccc2c1)N1CC2CC1CO2 (configuration not stated)
76 | 85 to 88 | c1cnc(N2CCN(CCCCn3cnc4ccccc43)CC2)nc1
77 | 73 to 77 | CC(C)C(c1ccccc1O)N1CCOCC1 (configuration not stated)
78 | 192 to 193 | CN1c2ccccc2C(=O)c2ccccc2C12OCCO2
79 | 123 to 125 | CCOC(=O)C(Cc1ccc(C(C(N)=O)C(C)c2ccccc2N2CCCCC2)cc1)C(=O)OCC (configuration not stated)
80 | 92 to 93 | COc1ccc(C23CCCC2(c2ccc(OC)cc2)C3)cc1 (configuration not stated)
81 | 127 | CCP(=O)(CC)Cc1ccccc1O
82 | 175 to 177 | Nc1cccc(Cc2n[nH]c(=O)c3ccccc23)c1
83 | 262 to 264 | O=C1c2nc[nH]c2N(Cc2ccccc2)C2=NCCN12
84 | 46 to 50 | COC[C@H]1C[C@H]1c1ccccc1 (relative stereo)

Row | melting point [°C] | Compound
85 | 151 to 154 | NC(=O)C1CCc2ccccc21 (configuration not stated)
86 | 275 to 277 | CC(C)c1cccc(C(C)C)c1NC(=O)CN1C(=O)N(c2ccccc2)C2(CCCC2)C1=O
87 | 45 to 47 | CCCCN(CCO)c1cccc(O)c1
88 | 58 to 59 | CCOC(=O)CN1C(=O)C2(COc3cc4c(cc32)OCCO4)c2ccccc21 (configuration not stated)
89 | 235 to 236 | Cn1ncc(C(=O)N2CCC2)c1C(=O)Nc1ccc2nc(-c3ccccc3)nn2c1
90 | 63 | CN(CCCCCNC(=O)NCCCOc1cccc(CN2CCCCC2)c1)CCN(Cc1ccc(F)cc1)c1ccccn1
91 | 126 to 127 | CC(=O)Nc1sc2c(c1C(=O)c1ccco1)CCCC2
92 | 181 to 182 | CC(=O)C1C(=O)N(C(=O)Nc2ccc(F)cc2)c2ccccc21 (configuration not stated)
93 | 81 to 85 | c1ccc2c(c1)ccn2Nc1ccncn1
94 | 136 | CON=C(C(C)=NN=Cc1ccccc1C(=NOC)C1=NOCCO1)c1ccccc1
95 | 285 to 287 | O=c1[nH]c2cnccc2c2nc(-c3ccccc3F)nn12
96 | 52 to 55 | c1ccc2c(Cn3ccnc3)noc2c1
97 | 101 to 102 | Cc1cc(C)c(C(CO)c2ccc(C(C)C)cc2)c(O)c1 (configuration not stated)
98 | 67 to 77 | COc1ccccc1CN[C@H]1CCCN(CCCCCCCc2ccccc2)[C@H]1c1ccccc1 (relative stereo)
99 | 63 to 64 | OCC1(c2ccccc2)CCCCC1
100 | 157 | COc1ccc(C(=O)Nc2cccc3[nH]ccc23)c(OCC2CO2)c1 (configuration not stated)
101 | 190 to 194 | O=C1OCCC12Sc1ccc([N+](=O)[O-])cc1C2=O (configuration not stated)
102 | 91.9 to 93 | COc1cccc(CNc2ncnc3c2sc2nc(N(C)C)c4c(c23)CC(C)(C)CC4)c1OC
